The record followed here is ChEMBL document CHEMBL4417629, “Inhibitors of RAD52 Recombination Protein and Methods Using Same” (2018).

The test system of data set [1] is U2OS. Nature of the data set: Effect on GFP+ positive cells in human U2OS cells co-expressing pMX-GFP up to 30 uM incubated for 48 hrs by flow cytometry relative to control. The format is ADME, cell-based. (In general: In flow cytometry, cells or beads pass a laser one at a time.)
Data set [2] addresses T1, DNA repair protein RAD51 homolog 1 (Homo sapiens) (UniProt Q06609).
T1 sequence (whole entry): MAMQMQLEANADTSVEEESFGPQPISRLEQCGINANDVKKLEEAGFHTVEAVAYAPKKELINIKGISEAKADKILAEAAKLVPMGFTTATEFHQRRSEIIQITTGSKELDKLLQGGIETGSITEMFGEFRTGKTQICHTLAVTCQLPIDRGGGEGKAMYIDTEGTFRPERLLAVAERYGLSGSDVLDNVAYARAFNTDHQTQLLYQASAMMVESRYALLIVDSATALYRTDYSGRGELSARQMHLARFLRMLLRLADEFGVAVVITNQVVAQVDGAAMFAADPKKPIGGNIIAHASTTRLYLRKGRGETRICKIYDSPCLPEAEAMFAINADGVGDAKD
The experiment in a line: Inhibition of RAD51 (unknown origin) assessed as inhibition of DNA pairing by measuring D-loop formation between [32P]-ssDNA and homologous supercoiled pUC19 DNA at 30 uM incubated for 15 mins by gel electrophoresis method relative to control.

The target of data set [3] is T2, DNA repair protein RAD51 homolog 1 (Mus musculus, UniProt Q08297).
T2 sequence (Q08297 whole entry): T1 sequence (whole entry) with N10S, F46Y, A76T, A194G
The experiment in a line: Induction of RAD51 foci formation in BCR-ABL1-positive and BRCA1-proficient mouse 32Dcl3 cells by AlexaFluor-594 staining based inverted fluorescence microscopy.

Data set [4] is filed under the species Homo sapiens. Nature of the data set: Growth inhibition of BCR-ABL1-positive and BRCA1-deficient human CML cells at 2.5 to 10 uM treated with compound on days 0 and 2 and measured on day 4 by trypan blue staining based assay. The format is functional.
Data set [5] has as its system U2OS. Nature of the data set: Effect on homology dependent recombination in human U2OS cells co-expressing pMX-GFP at 10 to 30 uM by flow cytometry. It is filed as functional, cell-based.
The species named for data set [6] is Homo sapiens. Nature of the data set: Growth inhibition of BRCA1-deficient human UWB1.289 cells at 2.5 to 10 uM following media refreshment every 3 days and measured on day 10 by CellTiter-Glo assay. The format is functional. On the technique in general: Cellular ATP, detected with luciferase, serves as a proxy for viable cell number.
For a further data set, the system named is Salmon testes DNA. The experiment in a line: Binding affinity to salmon sperm DNA incubated for 20 mins by acridine orange displacement based fluorescence polarization assay. The format is nucleic-acid assay. Conditions: Salmonidae. For orientation: Polarisation of emitted light reports the rotation of a fluorescent probe.
In data set [7] the test system is U2OS. Nature of the data set: Effect on homology dependent recombination in human U2OS cells co-expressing DR-GFP at 10 to 30 uM flow cytometry. It is filed as functional, cell-based.
For data set [8], the target named is T3, DNA repair protein RAD52 homolog (Homo sapiens) (UniProt P43351).
T3 sequence (whole entry): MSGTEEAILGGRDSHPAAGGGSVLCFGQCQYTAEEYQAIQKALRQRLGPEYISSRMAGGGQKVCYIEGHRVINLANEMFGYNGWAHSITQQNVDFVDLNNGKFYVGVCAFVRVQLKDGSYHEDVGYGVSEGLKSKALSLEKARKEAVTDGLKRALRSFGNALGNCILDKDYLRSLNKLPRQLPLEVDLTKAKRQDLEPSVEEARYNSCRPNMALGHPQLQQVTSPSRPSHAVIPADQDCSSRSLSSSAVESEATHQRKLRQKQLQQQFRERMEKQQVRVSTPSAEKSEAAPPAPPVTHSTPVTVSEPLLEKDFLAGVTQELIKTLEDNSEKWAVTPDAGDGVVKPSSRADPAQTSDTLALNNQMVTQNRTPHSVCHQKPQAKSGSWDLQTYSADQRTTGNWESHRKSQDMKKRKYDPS
Nature of the data set: Inhibition of RAD52 (unknown origin) expressed in BCR-ABL1-positive and BRCA1-deficient mouse 32Dcl3 cells expressing GFP-RAD52 assessed as reduction in cisplatin-induced RAD52 foci formation at 2.5 uM by AlexaFluor-594 staining based inverted fluorescence microscopy relative to control. The format is cell-based.

Data set [9] addresses T3, DNA repair protein RAD52 homolog (Homo sapiens). Nature of the data set: Inhibition of RAD52 (unknown origin) assessed as inhibition of DNA pairing using [32P]-ssDNA by measuring D-loop formation incubated for 15 mins by gel electrophoresis method.
Data set [10] shares this target. Nature of the data set: Inhibition of RAD52 in human U2OS cells co-expressing SSA-GFP assessed as inhibition of repair of I-Scel-induced double stranded breaks by measuring green fluorescence at 10 uM by flow cytometry (reference value: 7.1%). Further details: scale not given: the % may be the effect or the level left. It is filed as cell-based.
Data set [11] shares this target. Nature of the data set: Inhibition of RAD52 (unknown origin) expressed in BCR-ABL1-positive and BRCA1-deficient mouse 32Dcl3 cells expressing GFP-RAD52 assessed as cisplatin-induced RAD52 foci formation by measuring fraction of cell without foci at 2.5 uM by AlexaFluor-594 staining based inverted fluorescence microscopy (reference value: 48.4 +/- 6.2%). More on the design: scale not given: the % may be the effect or the level left.

The target is the same in data set [12]. The experiment in a line: Inhibition of RAD52 in human U2OS cells co-expressing SA-GFP assessed as reduction in single strand DNA annealing incubated for 48 hrs by GFP+ positive cells detection based flow cytometry. The format is cell-based.
Data set [13] deals with T4, DNA repair protein RAD52 homolog (Homo sapiens, UniProt P43351).
T4 sequence (P43351 whole entry): T3 sequence (whole entry)
The experiment in a line: Effect on RAD52 (unknown origin) expressed in BCR-ABL1-positive and BRCA1-deficient mouse 32Dcl3 cells expressing GFP-RAD52 assessed as induction of RAD52 foci formation by AlexaFluor-594 staining based inverted fluorescence microscopy. The format is cell-based.

Data set [14] has as its target T3, DNA repair protein RAD52 homolog (Homo sapiens). Nature of the data set: Inhibition of RAD52 in human U2OS cells co-expressing SSA-GFP assessed as inhibition of repair of I-Scel-induced double stranded breaks by measuring green fluorescence at 15 uM by flow cytometry (reference value: 7.1%). It is filed as cell-based. More on the design: scale not given: the % may be the effect or the level left.

Data set [15] deals with U2OS. Nature of the data set: Effect on homology dependent recombination in human U2OS cells co-expressing DR-GFP assessed as measuring green fluorescence at 10 uM flow cytometry (reference value: 7.13%). The format is functional.
The test system of the next data set is CAPAN-1. Nature of the data set: Growth inhibition of BRCA2-deficient human Capan1 cells at 2.5 to 10 uM following media refreshment every 3 days and measured on day 10 by CellTiter-Glo assay. It is filed as functional, cell-based.
The target of data set [16] is T3, DNA repair protein RAD52 homolog (Homo sapiens). The experiment in a line: Inhibition of RAD52 in human U2OS cells co-expressing SSA-GFP assessed as inhibition of repair of I-Scel-induced double stranded breaks by measuring green fluorescence at 5 uM by flow cytometry (reference value: 7.1%). More on the design: scale not given: the % may be the effect or the level left. The format is cell-based.

Data set [17] has the same target. The experiment in a line: Inhibition of RAD52 in human U2OS cells co-expressing SSA-GFP assessed as inhibition of repair of I-Scel-induced double stranded breaks by measuring green fluorescence at 30 uM by flow cytometry (reference value: 7.1%). The format is cell-based. Further details: scale not given: the % may be the effect or the level left.
The subject of data set [18] is U2OS. The experiment in a line: Effect on homology dependent recombination in human U2OS cells co-expressing DR-GFP assessed as measuring green fluorescence at 30 uM flow cytometry (reference value: 7.13%). It is filed as functional.

Structures are written as SMILES. Numbering of substitutions follows the chain as printed. The source made the active and inactive calls. The calls are words filed in the database; no cut-off is given here.

For orientation: inhibition means the percentage by which the read-out fell short of the control.

For the compound `CCN(CC)CCN=C(S)Nc1ccc2nc(N3CCN(C)CC3)cc(C)c2c1`, the Activity result in the data set on U2OS [1] is “Non-Toxic”; in data set [3] it was “Non-Toxic”; in [10], 6.28%; in [11], 57.6%; in data set [13], “Non-Toxic”; in data set [14], 4.08%. Moreover, the Activity came to 6.68% in the data set with U2OS [15], 6.54% in data set [16], 2.43% in data set [17] and 5.18% in the data set with U2OS [18]. In addition, the inhibition in data set [2] was above 90%; in data set [9], “Dose-dependent effect”; in data set [12], “Dose-dependent effect”. Also, the “growth inhibition (GI)” value in the data set filed under Homo sapiens [4], in the data set listed under Homo sapiens [6] and in the data set with CAPAN-1 was “Active” in each case. The result in the data set with U2OS [5], with Salmon testes DNA and in the data set on U2OS [7] was inactive. In data set [8], the fold change (FC) was in the range of 2 to 2.5.
